Measurements published in ChEMBL document CHEMBL1138399, “Novel poly(ADP-ribose) polymerase-1 inhibitors” (Bioorg Med Chem Lett, 2007).

Experiments:
PC-12 [1] = assay: Recovery of NAD+ in hydrogen peroxide treated PC12 cells at 1 uM relative to control; type: functional, Rattus norvegicus
PC-12 [2] = assay: Maximum recovery of NAD+ in hydrogen peroxide treated PC12 cells at 30 uM relative to control; type: functional, Rattus norvegicus
PC-12 [3] = assay: Maximum recovery of NAD+ in hydrogen peroxide treated PC12 cells at 3 uM relative to control; type: functional, Rattus norvegicus
[4] = target: Poly [ADP-ribose] polymerase 1 (Homo sapiens, UniProt P09874); assay: Inhibition of human recombinant PARP1 in U251MG cells by CometAssay; type: cell-based, U-251
PC-12 [5] = assay: Maximum recovery of NAD+ in hydrogen peroxide treated PC12 cells at 10 uM relative to control; type: functional, Rattus norvegicus

Chain of Poly [ADP-ribose] polymerase 1 (P09874 whole entry): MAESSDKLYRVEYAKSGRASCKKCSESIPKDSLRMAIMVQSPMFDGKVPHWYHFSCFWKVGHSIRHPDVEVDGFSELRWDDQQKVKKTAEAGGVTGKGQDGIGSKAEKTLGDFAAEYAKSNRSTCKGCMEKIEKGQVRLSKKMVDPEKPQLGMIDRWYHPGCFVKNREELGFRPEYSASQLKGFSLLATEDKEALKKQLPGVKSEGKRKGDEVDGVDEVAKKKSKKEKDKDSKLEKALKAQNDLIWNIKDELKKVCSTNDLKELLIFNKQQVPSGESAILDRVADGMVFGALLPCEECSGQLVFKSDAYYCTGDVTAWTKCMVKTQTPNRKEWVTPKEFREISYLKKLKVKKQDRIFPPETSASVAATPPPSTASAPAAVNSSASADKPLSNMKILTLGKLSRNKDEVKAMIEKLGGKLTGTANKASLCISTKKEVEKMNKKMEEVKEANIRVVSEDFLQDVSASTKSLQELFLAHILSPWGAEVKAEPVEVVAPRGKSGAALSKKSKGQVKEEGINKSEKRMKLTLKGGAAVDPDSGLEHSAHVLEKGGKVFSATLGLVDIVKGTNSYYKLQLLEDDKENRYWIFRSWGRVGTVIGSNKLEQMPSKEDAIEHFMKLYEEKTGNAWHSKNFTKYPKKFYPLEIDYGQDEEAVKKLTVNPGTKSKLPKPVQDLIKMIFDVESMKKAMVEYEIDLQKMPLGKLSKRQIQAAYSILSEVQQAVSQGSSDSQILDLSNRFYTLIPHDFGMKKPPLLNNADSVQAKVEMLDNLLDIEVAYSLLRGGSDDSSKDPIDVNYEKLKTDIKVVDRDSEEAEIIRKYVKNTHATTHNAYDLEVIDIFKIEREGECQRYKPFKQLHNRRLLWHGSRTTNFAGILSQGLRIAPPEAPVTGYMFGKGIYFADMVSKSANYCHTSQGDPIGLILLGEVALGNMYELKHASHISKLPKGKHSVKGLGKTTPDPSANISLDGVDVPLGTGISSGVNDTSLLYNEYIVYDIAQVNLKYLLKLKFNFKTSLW

SMILES | Activity (PC-12 [1]) | Activity (PC-12 [2]) | Activity (PC-12 [3]) | IC50 [4] | Activity (PC-12 [5])
O=C1NC(=O)c2c1c1c(c3[nH]c4ccccc4c23)CCC1 | 30% |  |  |  | 
Cc1nc(-c2ccc3[nH]c4c5c(c6c(c4c3c2)C(=O)NC6=O)CCC5)cs1 | 19% | 63% |  |  | 
N=C(N)Nc1nc(-c2ccc3[nH]c4c5c(c6c(c4c3c2)C(=O)NC6=O)CCC5)cs1 | 19% | 53% |  |  | 
CC(=O)NCc1nc(-c2ccc3[nH]c4c5c(c6c(c4c3c2)C(=O)NC6=O)CCC5)cs1 | 20% | 51% |  |  | 
Cc1sc(N)nc1-c1ccc2[nH]c3c4c(c5c(c3c2c1)C(=O)NC5=O)CCC4 | 37% |  | 38% |  | 
CCC(=O)NCc1nc(-c2ccc3[nH]c4c5c(c6c(c4c3c2)C(=O)NC6=O)CCC5)cs1 | 16% | 20% |  |  | 
CC(=O)c1ccc2[nH]c3c4c(c5c(c3c2c1)C(=O)NC5=O)CCC4 | 35% | 57% |  |  | 
CC(=O)Nc1nc(-c2ccc3[nH]c4c5c(c6c(c4c3c2)C(=O)NC6=O)CCC5)cs1 | 10% | 34% |  |  | 
NC(CCCc1nc(-c2ccc3[nH]c4c5c(c6c(c4c3c2)C(=O)NC6=O)CCC5)cs1)C(=O)O.O=C(O)C(F)(F)F (configuration not stated) | 7% | 47% |  | 22 nM | 
O=C(NCc1nc(-c2ccc3[nH]c4c5c(c6c(c4c3c2)C(=O)NC6=O)CCC5)cs1)OCc1ccccc1 | 17% | 46% |  |  | 
Br.NCc1nc(-c2ccc3[nH]c4c5c(c6c(c4c3c2)C(=O)NC6=O)CCC5)cs1 | 20% |  |  |  | 41%
NCc1ccc2[nH]c3c4c(c5c(c3c2c1)C(=O)NC5=O)CCC4 | 84% | 100% |  | 18 nM | 
O=C1NC(=O)c2c1c1c(c3[nH]c4ccc(-c5csc(CNC6O[C@H](CO)[C@@H](O)[C@H](O)[C@H]6O)n5)cc4c23)CCC1 (some centres not stated) | 0% | 0% |  | 17 nM | 
O=C1NC(=O)c2c1c1c(c3[nH]c4ccc(-c5csc(CNC(=O)C6CC6)n5)cc4c23)CCC1 | 11% | 16% |  |  | 
CS(=O)(=O)Cc1nc(-c2ccc3[nH]c4c5c(c6c(c4c3c2)C(=O)NC6=O)CCC5)cs1 | 16% | 62% |  |  | 
O=C1NC(=O)c2c1c1c(c3[nH]c4ccc(-c5csc(CNC(=O)C6CCCC6)n5)cc4c23)CCC1 | 21% | 29% |  |  | 

SMILES | Activity (PC-12 [1]) | Activity (PC-12 [2]) | Activity (PC-12 [3]) | IC50 [4] | Activity (PC-12 [5])
CCCCC(=O)NCc1nc(-c2ccc3[nH]c4c5c(c6c(c4c3c2)C(=O)NC6=O)CCC5)cs1 | 15% | 34% |  |  | 
CS(=O)(=O)NCc1nc(-c2ccc3[nH]c4c5c(c6c(c4c3c2)C(=O)NC6=O)CCC5)cs1 | 22% | 28% |  | 18 nM | 
CC(C)(C)OC(=O)NC(CCCc1nc(-c2ccc3[nH]c4c5c(c6c(c4c3c2)C(=O)NC6=O)CCC5)cs1)C(=O)OC(C)(C)C (configuration not stated) | 17% |  |  | 46 nM | 27%
CC(C)C(=O)NCc1nc(-c2ccc3[nH]c4c5c(c6c(c4c3c2)C(=O)NC6=O)CCC5)cs1 | 10% | 33% |  |  | 
Nc1nc(-c2ccc3[nH]c4c5c(c6c(c4c3c2)C(=O)NC6=O)CCC5)cs1 | 48% | 100% |  |  | 
CC(C)(C)C(=O)OCc1nc(-c2ccc3[nH]c4c5c(c6c(c4c3c2)C(=O)NC6=O)CCC5)cs1 | 14% | 27% |  |  | 
O=C1NC(=O)c2c1c1c(c3[nH]c4ccc(-c5csc(-c6ccno6)n5)cc4c23)CCC1 | 11% | 27% |  | 66 nM | 
CCNC(=O)NCc1nc(-c2ccc3[nH]c4c5c(c6c(c4c3c2)C(=O)NC6=O)CCC5)cs1 | 15% |  |  |  | 22%
CC(C)CC(=O)NCc1nc(-c2ccc3[nH]c4c5c(c6c(c4c3c2)C(=O)NC6=O)CCC5)cs1 | 13% | 30% |  |  | 
CCCC(=O)NCc1nc(-c2ccc3[nH]c4c5c(c6c(c4c3c2)C(=O)NC6=O)CCC5)cs1 | 19% | 29% |  |  | 
CC(C)(C)OC(=O)Cc1nc(-c2ccc3[nH]c4c5c(c6c(c4c3c2)C(=O)NC6=O)CCC5)cs1 | 20% | 49% |  |  | 
Cc1nc(-c2ccc3[nH]c4c5c(c6c(c4c3c2)C(=O)NC6=O)CCC5)c(Br)s1 | 16% | 57% |  |  | 
CC(C)(C)S(=O)(=O)Cc1nc(-c2ccc3[nH]c4c5c(c6c(c4c3c2)C(=O)NC6=O)CCC5)cs1 | 33% | 51% |  |  | 
O=C(CBr)c1ccc2[nH]c3c4c(c5c(c3c2c1)C(=O)NC5=O)CCC4 | 32% | 49% |  |  | 
CNc1nc(-c2ccc3[nH]c4c5c(c6c(c4c3c2)C(=O)NC6=O)CCC5)cs1 | 22% | 56% |  |  | 
